Results taken from patent US7091185B2, “Periodic antimicrobial peptides” (Dow Global Technologies Inc., priority 2003, dated 2006).
Where two headings read alike, the source gives them in different places. Where no end group is shown, it is not given here.

Key:
[1] = test system: E. coli ATCC 2592; details: ATCC 2592
Method: (§1) The bacteria tested were P. aeruginosa American Type Culture Collection Number (ATCC) 10145, E. coli ATCC 2592, and S. aureus (methicillin reseistant) ATTC 33591.
(§2) All experiments were compared to bacterial growth under optimal growth conditions (37° C., pH 7.0, absence of additional salt, growth media—referred to as standard growth conditions). In each plate, no growth control (media alone), positive growth control (bacteria with no test sample), positive antimicrobial controls (agents with known antimicrobial activity) and test compounds were tested.
(§3) The plates were incubated overnight, and the relative percent growth determined by optical density at 620 nm (OD620) using a […] […] PLUS™. […] All samples were tested in duplicate and each assay was repeated at least twice. […] IC50 and MIC are reported in μg/ml.

[2] = test system: P. aeruginosa ATCC 10145; details: ATCC 10145
Method: as §1, §2, §3

[3] = test system: S. aureus (methicillin resistant) ATCC 33591; details: ATCC 33591
Method: as §1, §2, §3

[4] = test system: C. albicans 10231; assay type: cell-based; details: 10231
Method: (§4) The MIC and IC50 values were determined by a broth microdilution method according to guidelines of the National Committee for Clinical Laboratory Standard as follows: In 96-well tissue culture plates, a fixed volume of bacterial suspension in 2× broth (as defined below) was added to the mixtures or individual compounds dispensed at concentrations varying from 1,000 to 1 μg/ml derived from serial two-fold dilutions in sterile water. The bacteria tested were P. aeruginosa American Type Culture Collection Number (ATCC) 10145, E. coli ATCC 2592, and S. aureus (methicillin reseistant) ATTC 33591.
(§5) The plates were incubated overnight, and the relative percent growth determined by optical density at 620 nm (OD620) using a TITERTEK MULTISKAN PLUS™. […] IC50 values were calculated using a sigmoidal curve fitting software program (GRAPHPAD,™ ISI Software,™ San Diego, Calif.). All samples were tested in duplicate and each assay was repeated at least twice. In the following table, KFAK is the repeat unit and multimers of KFAK were tested. IC50 and MIC are reported in μg/ml.
(§6) Because the antibacterial activity of the periodic peptides was so promising, further experiments were performed to determine if the periodic peptides also had antifungal activity. The experimental design was similar to that above, with accommodation made for fungal growth requirements, including the use of Sabouraud Dextrose Broth (SDB) and Sabouraud Dextrose Agar (SDA) slants.

[5] = test system: Cr. Neoformans 32045; assay type: cell-based
Method: as §4, §5, §6

[6] = Red blood cell toxicity; assay type: cell-based; details: red blood cells (RBC)
[7] = test system: Red blood cells (RBC); experiment: Red blood cell toxicity; assay type: cell-based
[8] = test system: HeLa cell line; experiment: HeLa MTS cellular reduction toxicity assay; assay type: cell-based; details: for TX50: 24 h, MTS
Method: The RBC protocol was from Blondelle (2000) and is described generally as follows: The toxicity toward the HeLa cell line was determined using a MTS (3-(4-5-dimethylthiazol-2-yl)-5-(3carboxymethoxyphenyl)-2-(4-sulfophenyl)-2H-tetrazolium, sodium salt) cellular reduction assay. MTS (2 mg/mL) was prepared in Dulbecco PBS (pH 7.35), filtered, aliquoted and stored at minus 20° C. In 96 well flat bottomed plates, cell suspensions (250 μL of 6×10^4 cell/mL in each well) were incubated for 48 h at 37° C. (5% CO2 incubator). The peptides (50 μL) were then added to the cell monolayer (following aspiration of the media from each well and addition of 50 μL of Dulbecco's Modified Eagles Medium) at varying concentrations derived from serial 2-fold dilutions, and the plates incubated for 24 h at 37° C. (5% CO2 incubator). Proliferation was then determined by adding a solution of phenazine methosulfate (PMS: 0.92 mg/mL in DPBS) to MTS at a 1:20 ration just prior to the assay. Twenty microliters MTS-PMS solution were added to each well and the plates incubated for 1 h at 37° C. (5% CO2 incubator). The relative percent toxicity was determined by comparing the absorbance at 490 nm of each peptide to the absorbance of cells without peptide. The TX50 (concentration required for 50% toxicity) was calculated using a sigmoidal curve fitting software (Graphpad Prism).

[9] = test system: P. aeruginosa ATCC 15442; experiment: HMARQ biocidal kill activity; assay type: cell-based; details: P. aeruginosa ATCC 15442 (gram−)
Method: (§7) Biocide efficacy protocols were improved by reducing sample size, organizing the test material into an array format, implementing most probable number (MPN) quantitation and using multi-channel liquid handling equipment. We call the new method “high-throughput microanalysis and rapid quantitation” or “HMARQ.” HMARQ is directly applicable to current industrial efficacy tests such as multi-cycle preservation challenge or time course disinfection tests.
(§8) HMARQ is performed in a high throughput plate, such as 96-well microtiter plates. Typical sample volumes have been reduced down to 200 to 300 μL, but can be reduced further if desired. In these samples, no more than 10% of the total volume will be composed of the biocide and organism solution, and all non-matrix additions are normalized for all samples.
(§9) The sample matrix is first inoculated with the desired concentration of microorganisms. Inoculated sample matrix is then added to the 96-well assay block containing the biocide(s) under study. Each sample block contains biocide treated samples and untreated control samples (lacking biocide). Once the samples are prepared, the entire block of samples is mixed by vortexing until each sample is homogenous. In general, the study starts once mixing is complete, and samples are removed as required for the analysis. When Kill Time testing (rate of biocide activity) is performed, the microorganisms are added after biocide addition to the samples, allowing for rapid mixing and analysis.
(§10) Bacterial concentration (CFU/mL) is determined using the most probable number method (MPN). The contaminated solution is serially diluted until the “no growth” endpoint is reached. The endpoint represents the MPN and is expressed in units of the bacterial concentration. A serial 1:10 dilution will yield a bacterial concentration resolution of 1 log and the log reduction is determined by comparing the concentration of organisms in a treated sample to the concentration of organisms in untreated samples. For example, if a sample requires four 1:10 dilutions before bacterial growth is lost then the MPN for bacterial concentration in the sample is less than or equal to 1×10^4 CFU/mL (1E4). […] This method of enumeration is generally applicable to all non-filamentous microorganisms.
(§11) Media included Tryptic Soy Broth (TSB) for bacteria and Sabouraud Dextrose Broth (SDB) for fungi. These are available commercially and prepared according to the manufacturers instructions. Indicator medium was TSB/R for bacteria and SDB/R for fungi. These were made by addition of 50 μM filter sterilized Resazurin to the sterilized and cooled medium. Tryptic Soy agar plates (TSA) and SDA slants were used to provide inoculant for bacterial and fungal cultures. The indicator dye appeared pink or white when bacterial growth was present.
(§12) Using the HMARQ test described above, periodic peptides were generated and tested for Kill Activity. In this experiment, a broader range of peptidezs were tested for activity. Units are expressed as ppm (μg/mL) needed for 3.5 log kill at 15 min or 24 hour and the results are shown below.

[10] = test system: Staph. aureus ATCC 6538; experiment: HMARQ biocidal kill activity; assay type: cell-based; details: Staph. aureus ATCC 6538 (gram+)
Method: as §7, §8, §9, §10, §11, §12

[11] = RBCs, concentration required for 50% toxicity, read-out: TX50

Substance	IC50 [1] [µg/mL]	MIC [1] [µg/mL]	IC50 [2] [µg/mL]	MIC [2] [µg/mL]	IC50 [3] [µg/mL]	MIC [3] [µg/mL]	IC50 [4] [µg/mL]	MIC [4] [µg/mL]	IC50 [5] [µg/mL]	MIC [5] [µg/mL]	HC50 at 24 h [6, 11] [µg/mL]	% kill at 250 μg/ml [7] [%]	% kill at 500 μg/ml [8] [%]	TX50 [8] [µg/mL]	ppm needed for 3.5 log kill at 15 min [9] [ppm]	ppm needed for 3.5 log kill at 24 hr [9] [ppm]	ppm needed for 3.5 log kill at 15 min [10] [ppm]	ppm needed for 3.5 log kill at 24 hr [10] [ppm]	HC50 at 24 h [6] [µg/mL]
FKAFKAFKAFKAFKAFKA [FKA (6), FKA FKA FKA FKA FKA FKA]	29	32 to 62	79	100	>500	>500	208	250 to 500	2.8	4 to 8	496	28	110.8	>500	8	8	4	500	–
KFKKFKKFKKFKKFKKFKKFK [KFK (7), KFK KFK KFK KFK KFK KFK KFK]	18	31 to 62	87	125	141	>500	175	250 to 500	26	40 to 62	> 500	−7	80.9	>500	>500	125	>500	–	–
H-KKFAKKFAKKFAKKFAKKFAKKFA-OH [KKFA (6), KKFA KKFA KKFA KKFA KKFA KKFA]	7	16 to 32	33	62	136	>250	107	125 to 250	12	32 to 62	–	2	76.4	>500	>500	8	>500	63	> 500
H-KFKKFKKFKKFKKFKKFKKFKKFK-OH [KFK (8), KEK KFK KFK KFK KFK KFK KFK KFK]	20	32 to 62	145	250	72	>250	113	125 to 250	25	40 to 62	> 500	−6	84.2	>500	>500	>125	>500	500	–
KFKKFKKFKKFKKFKKFKKFKKFKKFK [KFK (9), KFK KFK KFK KFK KFK KFK KFK KFK KFK]	14	16 to 32	68	125	92	125 to 250	194	250 to 500	39	62 to 125	> 500	−6	80.7	>500	>500	63	>500	500	–
H-LKKLLKKLLKKLLKKLLKKLLKKLLKKL-OH [LKKL (7), LKKL LKKL LKKL LKKL LKKL LKKL LKKL]	41	62 to 125	96	125	252	>250	199	250 to 500	85	100 to 125	9	100	−0.4	25	125	8	4	125	–
KAAKKAAKKAAKKAAKKAAKKAAKKAAK [KAAK (7), KAAK KAAK KAAK KAAK KAAK KAAK KAAK]	261	–	>250	>250	>500	>500	262	>500	41	62 to 125	> 500	−6	90.0	>500	>500	125	>500	250	–
